# Measurements from patent US20010034887A1, “Transformation of guar” (priority 1994, published 2001).
# Where a name gives a salt, the structure may show the parent alone.
# Tested on: guar explants
# Experiment: Agrobacterium-mediated transformation of guar cotyledon explants: selection, shoot harvest and GUS test
# Format: cell-based, Cyamopsis tetragonoloba
# Procedure: Cotyledons with about 2 mm of hypocotyl were excised from 12 day old seedlings. The cotyledons were then torn apart using a tweezers to create wound surfaces and placed in the Agrobacterium-suspension for 30 min.
# Co-cultivation proceeded for 3 days at 25° C. and a 12 h/12 h day/night regime. After co-culture the explants were washed with 1/10 MS-medium, to which 100 mg/l carbenicillin, 100 mg/l cefotaxime and 1000 mg/l lysozyme had been added, 2-3 times for 45 min. while stirring at 100 rpm.
# The explants were transferred to selection medium and incubated as above (25° C., 12 h day/12 h night).
# After 4 weeks, shoots larger than 3 mm were harvested and transferred to shoot medium. After 10-14 days the shoots were tested for activity of the reporter gene β-glucuronidase (GUS), see below. GUS-positive shoots were transferred to fresh shoot medium while the GUS-negative shoots were discarded.
# After the first harvest, explants (from which shoots had been harvested) were transferred to a second selection medium with a lower kanamycin concentration (50 mg/l) . After another 4 weeks shoots were harvested and GUS-tested. The positive shoots were transferred to fresh medium, while the negatives were discarded.
# Tips of young leaves were excised and transferred to a multi-dish well containing 200 μl X-gluc solution. After incubation for 16 h at 35° C. the leaf tips were destained with 96% ethanol and the degree of blue stain was determined under a microscope.
# [1] = kanamycin sulfate 125 mg/l in selection medium, 1600 explants, strain EHA 101
# [2] = kanamycin sulfate 135 mg/l in selection medium, 1600 explants, strain EHA 101
# [3] = kanamycin sulfate 145 mg/l in selection medium, 1600 explants, strain EHA 101
# [4] = 0.1-2 mg/l PCIB during selection
# [5] = thidiazuron 0.3 mg/l, 742 explants
# [6] = thidiazuron 1.0 mg/l, 741 explants
# [7] = thidiazuron 3.0 mg/l, 1522 explants
# [8] = thidiazuron 4.5 mg/l, 797 explants
molecule,measurement,setting,value
"CC1(C)S[C@@H]2[C@H](NC(=O)C(C(=O)O)c3ccccc3)C(=O)N2[C@H]1C(=O)O (some centres unmarked) [Carbenicil., carbenicillin]",No. of GUS+ shoots,"carbenicillin 800 mg/l, cefotaxime 0, sulbactam 0, 800 explants, EHA 101",2
"NC[C@H]1O[C@H](O[C@H]2[C@H](O)[C@@H](O[C@H]3O[C@H](CO)[C@@H](O)[C@H](N)[C@H]3O)[C@H](N)C[C@@H]2N)[C@H](O)[C@@H](O)[C@@H]1O [Kanamycin sulf., kanamycin sulfate]",regeneration frequencies,100 mg/l kanamycin or less,~100%
same,No. of GUS+ shoots,[1],3
same,No. of regenerated shoots,[1],21
same,No. of GUS+ shoots,[2],5
same,No. of regenerated shoots,[2],19
same,No. of GUS+ shoots,[3],8
same,No. of regenerated shoots,[3],15
same,transgenic shoots found at the second harvest,"second harvest, kanamycin concentration reduced",About 50%
same,optimal kanamycin sulfate concentration in the selection medium,selection medium,145 mg/L
"O.O.O.O.O.O.[Cl][Ni][Cl] [NiCl2, 6H2O]",No. of GUS+ shoots,"NiCl2, 6H2O 1.0 mg/l with BAP 1.0 mg/l, 1200 explants, EHA 101",4
same,No. of GUS+ shoots,"NiCl2, 6H2O 1.0 mg/l with BAP 5.0 mg/l, 1200 explants, EHA 101",4
same,higher transformation frequency,"addition of 1 mg/l NiCl2, 6H2O",2-4 times
"CC(C)(Oc1ccc(Cl)cc1)C(=O)O [PCIB, 2-(p-chlorophenoxy)-2-methylpropionic acid]",amount of callus,[4],reduced the amount of callus significantly
same,regeneration and number of transgenic shoots,[4],enhanced regeneration and the number of transgenic shoots
"CC1(C)[C@H](C(=O)O)N2C(=O)C[C@H]2S1(=O)=O [Sulbactam, sulbactam]",No. of GUS+ shoots,"sulbactam 100 mg/l with carbenicillin 50 mg/l and cefotaxime 50 mg/l, 800 explants, EHA 101",9
same,No. of GUS+ shoots,"sulbactam 100 mg/l with carbenicillin 100 mg/l and cefotaxime 100 mg/l, 800 explants, EHA 101",5
"O=C(Nc1ccccc1)Nc1cnns1 [Thidiazuron, thidiazuron]",subsequent cloning of the transgenic shoots,,beneficial for the subsequent cloning of the transgenic shoots
same,increase of transformation frequencies,TDZ 0.3-3.0 mg/l vs no TDZ,1.5-1.8 fold
same,optimum TDZ concentrations in the selection media,selection media,0.3 to 3.0 mg/L
same,No. of GUS+ shoots,[5],8
same,Transform. freq. (%),[5],1.08%
same,No. of GUS+ shoots,[6],9
same,Transform. freq. (%),[6],1.21%
same,No. of GUS+ shoots,[7],16
same,Transform. freq. (%),[7],1.05%
same,No. of GUS+ shoots,[8],5
same,Transform. freq. (%),[8],0.63%
benzyladenine purine [BAP],total number of regenerated shoots on 5 mg/l BAP compared with 1 mg/l,5 mg/l vs 1 mg/l BAP in selection medium,about twice as high
same,No. of GUS+ shoots,"BAP 1.0 mg/l, NiCl2, 6H2O 0 mg/l, 1200 explants, EHA 101",1
same,No. of GUS+ shoots,"BAP 5.0 mg/l, NiCl2, 6H2O 0 mg/l, 1200 explants, EHA 101",2
silver thiosulfate [STS],No. of GUS+ shoots,"STS 2.5 μM, calculated per 1000 explants, EHA 101",12
same,No. of GUS+ shoots,"STS 5.0 μM, calculated per 1000 explants, EHA 101",8
same,No. of GUS+ shoots,"STS 10.0 μM, calculated per 1000 explants, EHA 101",7
same,shoot quality,presence of STS vs absence,significantly improved shoot quality
